Molecules are shown by their SMILES.

For test [1], the target named is Glycogen synthase kinase-3 beta (Homo sapiens, UniProt P49841). Briefly: Inhibition of glycogen synthase kinase-3 beta, purified from porcine brain or expressed in and purified from insect Sf9 cells. The class given is cell-based, Sus scrofa.
Test [2] has as its target Cyclin-dependent kinase 5/CDK5 activator 1 (Homo sapiens, UniProt Q00535). The test can be described thus: Inhibitory activity against recombinant mammalian cyclin-dependent kinase 5 (p35 NCK5a) expressed in Escherichia coli.
For test [3], the target named is CDK1/cyclin B (Marthasterias glacialis).

Chain of Glycogen synthase kinase-3 beta (P49841 whole entry): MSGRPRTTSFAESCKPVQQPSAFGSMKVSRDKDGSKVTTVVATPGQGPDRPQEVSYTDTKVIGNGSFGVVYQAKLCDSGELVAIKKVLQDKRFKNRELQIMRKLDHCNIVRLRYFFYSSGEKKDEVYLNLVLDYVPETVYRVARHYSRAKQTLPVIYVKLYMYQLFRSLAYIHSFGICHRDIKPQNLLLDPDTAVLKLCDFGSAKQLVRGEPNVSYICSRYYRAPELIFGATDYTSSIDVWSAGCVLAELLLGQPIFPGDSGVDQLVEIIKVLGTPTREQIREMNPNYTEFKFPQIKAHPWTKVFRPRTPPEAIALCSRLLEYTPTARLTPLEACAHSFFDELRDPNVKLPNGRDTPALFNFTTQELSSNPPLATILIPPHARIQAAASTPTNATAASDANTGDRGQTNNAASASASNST
Chain of Cyclin-dependent kinase 5/CDK5 activator 1 (Q00535 whole entry): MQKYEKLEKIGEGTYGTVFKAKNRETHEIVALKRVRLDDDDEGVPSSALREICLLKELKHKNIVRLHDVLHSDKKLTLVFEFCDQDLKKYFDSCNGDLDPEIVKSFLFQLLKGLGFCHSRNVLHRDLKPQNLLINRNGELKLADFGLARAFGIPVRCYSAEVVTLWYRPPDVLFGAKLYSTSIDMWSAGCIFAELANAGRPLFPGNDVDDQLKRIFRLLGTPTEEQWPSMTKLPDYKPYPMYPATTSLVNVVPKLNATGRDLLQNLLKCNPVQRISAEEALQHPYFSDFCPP
Chain of Cyclin-dependent kinase 5/CDK5 activator 1 (Q15078 whole entry, further chain): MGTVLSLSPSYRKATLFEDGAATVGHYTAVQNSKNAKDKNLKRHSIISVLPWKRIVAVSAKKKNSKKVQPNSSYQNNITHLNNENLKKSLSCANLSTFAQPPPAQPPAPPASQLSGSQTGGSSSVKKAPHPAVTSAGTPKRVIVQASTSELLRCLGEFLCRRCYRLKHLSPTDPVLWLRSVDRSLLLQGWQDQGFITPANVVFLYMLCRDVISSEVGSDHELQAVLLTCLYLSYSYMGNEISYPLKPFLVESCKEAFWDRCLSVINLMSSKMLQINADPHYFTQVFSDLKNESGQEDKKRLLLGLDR

In the case of `c1coc(-c2cc3[nH]ccnc-3n2)c1`, the IC50 in test [1] came to 15 µM; in test [2], 9.3 µM; in test [3], 12 µM.
As to `c1ccc(-c2cc3[nH]ccnc-3n2)cc1`, the IC50 in test [1] is 2.3 µM; in test [2], 4 µM; in test [3], 5 µM.
For `Fc1ccc(-c2cc3[nH]ccnc-3n2)cc1`, in that order: 1.9 µM, 1 µM and 2.3 µM.
For the molecule `Clc1ccc(-c2[nH]c3nccnc3c2CC2CCCCC2)cc1`, the figures for the IC50 in test [1], in test [2] and in test [3] were 8 µM, > 100 µM and 10 µM, respectively.
Take `CCCCc1c(-c2ccc(Cl)cc2)[nH]c2nccnc12`: the IC50 in test [1] was 5.9 µM; in test [2], > 100 µM; in test [3], 0.2 µM.
On the same counts, the results for `c1ccc(-c2cc3[nH]c4ccccc4nc-3n2)cc1` are > 100 µM, > 100 µM and > 100 µM.
Consider `Clc1ccc(C2(c3cc4[nH]ccnc-4n3)CC2)cc1`, for which the IC50 is 1 µM in test [1], 100 µM in test [2] and 30 µM in test [3].
On the same counts, the results for `Cc1ccc(-c2cc3[nH]ccnc-3n2)cc1` are 2.6 µM, 10 µM and 3 µM.
`Oc1cccc(-c2cc3[nH]ccnc-3n2)c1`: the IC50 in test [3] was found to be 2.5 µM.
For `CCCc1c(-c2ccc(OC)cc2)[nH]c2nccnc12`, the results for the IC50 in test [1], in test [2] and in test [3] were 0.4 µM, 0.5 µM and 0.4 µM, respectively.
Consider `COc1ccc(-c2[nH]c3nccnc3c2C(C)C)cc1`, for which the IC50 in test [1] amounted to 0.5 µM; in test [2], 2 µM.
For `Clc1ccc(-c2[nH]c3nccnc3c2Cc2ccccc2)cc1`, in that order: 6.8 µM and > 100 µM.
With `Cc1c[nH]c2cc(-c3ccccc3)nc-2n1`, the IC50 in test [1] was > 100 µM; in test [2], 100 µM; in test [3], 69 µM.
For `COc1cc(-c2cc3[nH]ccnc-3n2)cc(OC)c1OC`, in that order: 85 µM, > 100 µM and 100 µM.
On the same counts, the results for `COc1ccc(-c2[nH]c3nccnc3c2C)cc1OC` are 2 µM, 1 µM and 1.1 µM.
For `c1csc(-c2cc3[nH]ccnc-3n2)c1`, in that order: 1.2 µM, 2 µM and 7 µM.
On to `Oc1ccc(-c2[nH]c3nccnc3c2CC2CC2)cc1`, for which the figures for the IC50 in test [1], in test [2] and in test [3] were 3 µM, > 100 µM and 50 µM, respectively.
`Cc1c(C2(c3ccc(Cl)cc3)CC2)[nH]c2nccnc12`: the IC50 in test [1] came out at 18 µM; in test [2], 100 µM.
On to `c1c[nH]c2cc(-c3ccsc3)nc-2n1`, for which the half-maximal inhibitory concentration (IC50) in test [1] was determined as 0.8 µM; in test [2], 1 µM; in test [3], 2.3 µM.
For the molecule `Clc1cc(Cl)cc(-c2cc3[nH]ccnc-3n2)c1`, the IC50 in test [1], in test [2] and in test [3] was > 100 µM in each case.
With `COc1ccc(-c2[nH]c3nccnc3c2CC2CC2)cc1`, the IC50 was 1.1 µM in test [1], > 100 µM in test [2] and 1 µM in test [3].
As for `CCCCCCCc1c(-c2ccc(OC)cc2)[nH]c2nccnc12`, the IC50 in test [1] was > 10 µM; in test [2] it was > 100 µM; in test [3], 7 µM.
For `C=CCc1c(-c2ccc(OC)cc2)[nH]c2nccnc12`, in that order: 0.6 µM, 2 µM and 1 µM.
Regarding `COc1ccc(-c2[nH]c3nccnc3c2CCCCl)cc1`, the IC50 in test [1] turned out to be 2.5 µM; in test [2] it was 3 µM.
As to `COc1cc(OC)cc(-c2cc3[nH]ccnc-3n2)c1`, the half-maximal inhibitory concentration (IC50) in test [1] is 60 µM; in test [2], > 100 µM; in test [3] it was 100 µM.
In test [3], `Clc1ccc(-c2cc3[nH]ccnc-3n2)cc1` gave an IC50 of 1.8 µM.
Regarding `COc1ccc(-c2cc3[nH]ccnc-3n2)cc1`, the IC50 in test [1] worked out at 1.1 µM; in test [2], 4 µM; in test [3] it was 2 µM.
For `CCCc1c(-c2ccc(O)cc2)[nH]c2nccnc12`, in that order: 1.8 µM, 1.2 µM and 25 µM.
For `FC(F)(F)c1ccc(-c2cc3[nH]ccnc-3n2)cc1`, in that order: 7.2 µM, > 100 µM and 6 µM.
In the case of `Brc1ccc(-c2cc3[nH]ccnc-3n2)cc1`, the IC50 in test [1] was 6 µM; in test [2], > 100 µM.
For the molecule `CC(C)c1c(-c2ccc(Cl)cc2)[nH]c2nccnc12`, the results for the IC50 in test [1], in test [2] and in test [3] were 0.75 µM, 13 µM and 0.85 µM, respectively.
In the case of `COc1ccc(-c2[nH]c3nccnc3c2C)cc1`, the IC50 came out at 0.46 µM in test [1], 0.8 µM in test [2] and 0.3 µM in test [3].
For `c1c[nH]c2cc(-c3ccc(C4OCCO4)cc3)nc-2n1`, in that order: 20 µM, 15 µM and 8 µM.
`c1ccc(-c2cc3[nH]ccnc-3n2)nc1`: the IC50 in test [1] amounted to 15 µM; in test [2], 53 µM; in test [3] it was 21 µM.
On the same counts, the results for `CN(C)c1ccc(-c2cc3[nH]ccnc-3n2)cc1` are 12 µM, > 100 µM and 20 µM.
`c1ccc(Cc2c(-c3ccccc3)[nH]c3nccnc23)cc1`: the IC50 is 1 µM in test [1], > 100 µM in test [2] and 2 µM in test [3].
For `Cc1c(-c2ccc(OS(=O)(=O)N(C)C)cc2)[nH]c2nccnc12`, in that order: 0.5 µM, 0.9 µM and 0.7 µM.
On the same counts, the results for `Oc1ccccc1-c1cc2[nH]ccnc-2n1` are 6.5 µM, 3 µM and 2.5 µM.
On the same counts, the results for `COc1ccccc1-c1cc2[nH]ccnc-2n1` are 3.3 µM, 23 µM and 20 µM.
As to `Cc1c(-c2ccc(O)cc2)[nH]c2nccnc12`, the half-maximal inhibitory concentration (IC50) amounted to 0.52 µM in test [1], 0.2 µM in test [2] and 0.25 µM in test [3].
On the same counts, the results for `N#Cc1ccc(-c2cc3[nH]ccnc-3n2)cc1` are 4.8 µM, 13 µM and 3 µM.
As for `COc1ccc(-c2[nH]c3nccnc3c2CC2CCCCC2)cc1`, the IC50 in test [1] was 6.8 µM; in test [2] it was > 100 µM; in test [3], 5 µM.
In the case of `Cc1c(-c2ccc(Cl)cc2)[nH]c2nccnc12`, the figures for the half-maximal inhibitory concentration (IC50) in test [1] and in test [2] were 1.7 µM and 5 µM, respectively.
For `Cn1c(-c2ccccc2)cc2nccnc21`, the IC50 in test [1] is > 100 µM; in test [3] it was 100 µM.
For `c1ccc2c(-c3cc4[nH]ccnc-4n3)cccc2c1`, the figures for the IC50 in test [1], in test [2] and in test [3] were 27 µM, 80 µM and > 100 µM, respectively.
In turn, `COc1ccc(-c2cc3ccc[nH]c-3n2)cc1` registered an IC50 in test [3] of 60 µM.
For the molecule `COc1cccc(-c2cc3[nH]ccnc-3n2)c1`, the figures for the IC50 in test [1], in test [2] and in test [3] were 3.2 µM, 10 µM and 13 µM, respectively.
Turning to `Oc1ccc(-c2cc3[nH]ccnc-3n2)cc1`, the IC50 in test [1] was determined as 1.2 µM; in test [2], 1 µM; in test [3] it was 1.2 µM.
Take `CCCCc1c(-c2ccc(OC)cc2)[nH]c2nccnc12` [ALOISINE]: the IC50 in test [1] was determined as 0.92 µM; in test [2] it was 1.5 µM.

Values taken from ChEMBL document CHEMBL1145099, “Aloisines, a new family of CDK/GSK-3 inhibitors. SAR study, crystal structure in complex with CDK2, enzyme selectivity, and cellular effects” (J Med Chem, 2003).
